Measured values reported in patent publication EP0824862A1, “Dihaloformaldoxime carbamates as antimicrobial agents” (ROHM AND HAAS COMPANY, priority 1996, dated 1998).
≈ marks a conversion by molar mass, not a printed value.

What was measured:
Assay type in all cases: cell-based
[1] = test system: Aspergillus niger; experiment: Minimum Inhibitory Concentration (MIC) test, two fold serial dilutions; conditions: Trypticase Soy Broth (TSB); unit assumed
Protocol: (§1) The spectrum of antimicrobial activity and the effect of anionic surfactant on the antimicrobial activity of the antimicrobial agents useful in the present invention were determined in Minimum Inhibitory Concentration (MIC) tests. MICs were determined by two fold serial dilutions of a compound in Minimal Salts Media (M9G), Trypticase Soy Broth (TSB) or Tryticase Soy Broth and anionic surfactant (TSBA). The compounds were tested against Aspergillus niger, Rhodotorula rubra, Escherichia coli and Pseudomonas aeruginosa. Results of the MIC tests are shown below.

[2] = test system: Escherichia coli; experiment: as above; conditions: unit assumed; for MIC E.Coli M9G: Minimal Salts Media (M9G); for MIC E. Coli TSB: Trypticase Soy Broth (TSB); for MIC E. coli TSBA: Trypticase Soy Broth and anionic surfactant (TSBA)
Protocol: as §1

[3] = test system: Pseudomonas aeruginosa; experiment: as above; conditions: Trypticase Soy Broth (TSB); unit assumed
Protocol: as §1

[4] = test system: Rhodotorula rubra; experiment: as above; conditions: Trypticase Soy Broth (TSB); unit assumed
Protocol: as §1

[5] = test system: Pseudomonas aeruginosa, Klebsiella pneumonia, Enterobacter aerogenes; experiment: Speed of kill test in synthetic cooling water; conditions: mixed culture 1:1:1, 10^6 cells per mL, concentration giving at least a two log reduction

Compound | MIC A. niger TSB [1] [µg/mL] | MIC E.Coli M9G [2] [µg/mL] | MIC E. Coli TSB [2] [µg/mL] | MIC E. coli TSBA [2] [µg/mL] | MIC P. aeruginosa TSB [3] [µg/mL] | MIC R. Rubra TSB [4] [µg/mL] | Effective Concentration 4 Hours [5] [ppm] | Effective Concentration 24 Hours [5] [ppm]
O=C(Nc1ccc(Cl)cc1)ON=C(Br)Br [Compound 3, N-(4-chlorophenyl)-dibromoformaldoxime carbamate] | > 50 | < 4 | 63 (≈ 177 µM) | 63 (≈ 177 µM) | 63 (≈ 177 µM) | > 50 | 8 | <4
CCCCCCNC(=O)ON=C(Br)Br [Compound 8, N-(n-hexyl)-dibromoformaldoxime carbamate] | > 50 | < 4 | 63 (≈ 191 µM) | 32 (≈ 97 µM) | 125 (≈ 379 µM) | 25 (≈ 75.8 µM) | <4 | <4
CCCCCCCCNC(=O)ON=C(Br)Br [Compound 7, N-(n-octyl)-dibromoformaldoxime carbamate] | 50 (≈ 140 µM) | < 4 | 63 (≈ 176 µM) | 125 (≈ 349 µM) | > 500 | 12.5 (≈ 34.9 µM) |  | 
Cc1ccc(NC(=O)ON=C(Br)Br)cc1 [Compound 9, N-(4-methylphenyl)-dibromoformaldoxime carbamate] | < 0.8 | < 4 | 32 (≈ 95.2 µM) | 32 (≈ 95.2 µM) | 16 (≈ 47.6 µM) | 3.2 (≈ 9.52 µM) | 125 | 8
CCCCNC(=O)ON=C(Br)Br [Compound 6, N-(n-butyl)-dibromoformaldoxime carbamate] | > 50 | < 4 | 250 (≈ 828 µM) | 63 (≈ 209 µM) | 63 (≈ 209 µM) | > 50 | 16 | 16
